In patent US6441039B1, “Gastro-intestinal adverse effect-free composition comprising an L-carnitine replacement” (priority 1998, dated 2002):
“And” between values parts separate entries of the source, which are not always exact repeats. Identical values can stand only once. Counter-ions that a name gives are not always drawn. Marks after values point to notes of the source that are not given here.

Key:
[1] = system: gastrointestinal motility; experiment: charcoal propulsion test, intestinal motility after single oral dose
Procedure: A study on the effect on intestinal motility of L-carnitine acid fumarate vs. L-carnitine L-tartrate administered by the oral route to the rat at a single dose, using the charcoal propulsion test, is hereinbelow reported.
35-day old, Hsd Sprague Dawley (SD) male rats (Harlan), weighing 125-150 g were used in the study. The rats were supplied by Harlan Nossan S.r.l., 8, Via E. Fermi, 20050 Correzzana (MI)—Italy.
Eight male rats/group were treated orally with L-Carnitine acid Fumarate, at the doses of 430-855 and 1710 mg/10 ml/kg, and with L-Carnitine L-Tartrate at the doses of 365-730 and 1455 mg/10 ml/kg.
The doses of the two compounds were chosen as equimolar to 250-500 and 1000 mg/kg of L-Carnitine Inner Salt.
Two additional groups, each consisting of eight males, were set up and orally treated respectively with the vehicle (Control group—0.5% Carboxymethylcellulose (MC) in deionized water: 10 ml/kg) or with Atropine (30 mg/10 ml/kg) as reference standard.
The animals were subdivided at random (in number of 4/cage) into the different dosage groups according to the following scheme:
Forty-five minutes after the administration of all the above reported substances, each rat received orally 1.5 ml of a 10% charcoal suspension.
Exactly twenty minutes after dosing with charcoal suspension the rats were sacrificed; then the distance the charcoal meal had travelled throughout the intestine (from the pyloric sphincter towards the caecum) was measured and expressed as a percentage of the total gut length.

[2] = oral intake, dose-related; cited from earlier work
[3] = individual rats, oral 30 mg/10 ml/kg

SMILES | Distance travelled as % of total intestine length (individual rat) [1, 3] | Distance travelled by charcoal (individual rat) [1, 3] | % change from vehicle ([1]; rat, oral 30 mg/10 ml/kg) | change in gastrointestinal motility vs control group ([1]; rat, oral 30 mg/kg) | Distance travelled as % of total intestine length (mean) ([1]; rat, oral single dose 30 mg/10 ml/kg, n=8, p<0.001 vs control) | gastrointestinal adverse effect in users [2]
CN1[C@@H]2CC[C@H]1C[C@@H](OC(=O)C(CO)c1ccccc1)C2 (stereo partly drawn) [Atropine] | 48.74% and 39.68% and 37.50% and 46.56% and 44.07% and 44.96% and 42.06% and 41.60% | 58 cm (2×) and 50 cm and 45 cm and 61 cm and 52 cm (2×) and 53 cm | −30.87% | statistically highly significant (p<0.001) decrease in gastrointestinal motility | 43.15 ▴ % | 
C[N+](C)(C)C[C@H](O)CC(=O)[O-] [L-carnitine, L-carnitine inner salt] |  |  |  |  |  | episodes of diarrhoea have been frequently reported
